The source of these data is patent US11072618B2, “Compounds, compositions and methods” (Denali Therapeutics Inc., priority 2016, dated 2021).

The target in this test is T1, GST-human receptor interacting protein kinase 1 fusion (8-327) enzyme (Homo sapiens, UniProt Q13546).
T1 sequence (Q13546 8-327): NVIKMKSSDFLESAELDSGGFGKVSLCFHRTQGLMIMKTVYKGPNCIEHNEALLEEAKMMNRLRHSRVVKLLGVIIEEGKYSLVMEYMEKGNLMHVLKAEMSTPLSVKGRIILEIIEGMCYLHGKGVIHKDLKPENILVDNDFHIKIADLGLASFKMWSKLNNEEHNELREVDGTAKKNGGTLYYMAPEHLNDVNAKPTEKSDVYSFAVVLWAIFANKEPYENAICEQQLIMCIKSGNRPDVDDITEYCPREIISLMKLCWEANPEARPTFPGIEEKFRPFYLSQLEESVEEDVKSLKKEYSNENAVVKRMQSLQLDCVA
Nature of the test: Fluorescent Polarization Binding (FP Binding) assay, receptor interacting protein kinase 1. The note with it: 10 nM enzyme, 5 nM fluorescent-labeled ligand, RT 30 min, mean of a minimum of two independent experiments. As for the experimental part: Fluorescent Polarization Binding (FP Binding) assay (Berger S. B. et al. (2015) Cell Death Discovery, 1: 15009; Maki J. L. et al. (2012) Anal Biochem., 427(2): 164-174) was performed in polystyrene low volume 384-well black plate, at Room Temperature (RT) in a final volume of 10.1 μL/well using 10 nM of GST-human receptor interacting protein kinase 1 fusion (8-327) enzyme and 5 nM of fluorescent-labeled ligand (14-(2-{[3-({2-{[4-(cyanomethyl)phenyl]amino}-6-[(5-cyclopropyl-1H-pyrazol-3-yl)amino]-4-pyrimidinyl}amino) propyl]amino}-2-oxoethyl)-16,16,18,18-tetramethyl-6,7,7a,8a,9,10,16,18-octahydrobenzo[2″,3″]indolizino[8″,7″:5′,6′]pyrano[3′,2′:3,4]pyrido[1,2-a]indol-5-ium-2-sulfonate.
Test compounds were serially diluted in DMSO at 100 fold final concentrations in the assay (1% DMSO final). In each well of a 384-well Plate were dispensed 0.1 μL of compound solution (or DMSO for controls) followed by 5 μL of GST-human receptor interacting protein kinase 1 fusion (8-327) enzyme at twice the final concentrations in assay buffer (50 mM HEPES pH 7.5, 10 mM NaCl, 50 mM MgCl2, 0.02% CHAPS, 0.5 mM DTT and 0.01% Pluronic F127). For negative control the enzyme addition was replaced by assay buffer only.
After addition of 5 μL of fluorescent-labeled ligand at twice the final concentrations in assay buffer, the plate was incubated at RT for 30 min. At the end, the binding was measured as FP value with the Envision (PerkinElmer) plate reader using filter for an excitation λ=531 nm FP and an emission λ=595 nm FP (S & P-pol).
Test compound inhibition was expressed as percent inhibition of internal assay controls. For concentration response curves, normalized data is fit and IC50 determined using XL-fit (IDBS) for Excel. IC50 were averaged to determine a mean value, for a minimum of two independent experiments.
Receptor interacting protein kinase 1 activity of exemplary compounds was determined according to the above general procedures.

Where only a bound is given, the exact number is not on record here.

Regarding `CC1(C)CN2CCC(c3cccc(F)c3)N2C1=O` (single isomer, unassigned) [Compound 3], the half-inhibitory concentration (IC50) (as a rule, the concentration at which inhibition is half-maximal) was less than 1000 nM.

Regarding `CCC1(C)CN2CCC(c3cc(F)cc(F)c3)N2C1=O` (single isomer, unassigned) [Compound 22], the IC50 is less than 1000 nM.

Consider `CC(F)(F)C1(C)CN2CCC(c3cncc(C#N)c3)N2C1=O` (single isomer, unassigned) [Compound 36], for which the 50% inhibitory concentration (IC50) lay in the range of 1000 to 30000 nM.

For the compound `CC1(C(F)F)CN2CCC(c3cncc(C#N)c3)N2C1=O` (single isomer, unassigned) [Compound 38], the IC50 was in the range of 1000 to 30000 nM.

Consider `CC1(C(F)F)CN2CCC(c3cncc(C#N)c3)N2C1=O` (single isomer, unassigned) [Compound 39], for which the half-inhibitory concentration (IC50) is less than 1000 nM.

As to `CC1(C(F)F)CN2CCC(c3cncc(F)c3)N2C1=O` (single isomer, unassigned) [Compound 45], the half-inhibitory concentration (IC50) is less than 1000 nM.

Regarding `CCC1(C(F)F)C[C@H]2CCC(c3cccc(F)c3)N2C1=O` (single isomer, unassigned) [Compound 55], the 50% inhibitory concentration (IC50) was less than 1000 nM.

In turn, `CCC1(C(F)F)C[C@@H]2CCC(c3cccc(F)c3)N2C1=O` (single isomer, unassigned) [Compound 57] displayed an IC50 of less than 1000 nM.

With `CC1(C)CN2CC[C@@H](c3ccccc3)N2C1=O` [Compound 1], the IC50 is less than 1000 nM.

The compound `CCC1(CC)CN2CCC(c3ccc(F)cc3)N2C1=O` (centres unmarked) [Compound 2] registered a half-maximal inhibitory concentration (IC50) of 1000 to 30000 nM.

With `CC1(C)CN2CCC(c3cccc(C#N)c3)N2C1=O` (centres unmarked) [Compound 4], the IC50 lay within 1000 to 30000 nM.

The compound `CC1(C)CN2CCC(c3cc(F)cc(C#N)c3)N2C1=O` (centres unmarked) [Compound 5] gave an IC50 of less than 1000 nM.

`CCC1(C)CN2CCC(c3cccc(F)c3)N2C1=O` (centres unmarked) [Compound 7]: the IC50 was less than 1000 nM.

For the compound `CC1(C)CCN2CCC(c3ccccc3)N2C1=O` (centres unmarked) [Compound 8], the 50% inhibitory concentration (IC50) was 1000 to 30000 nM.

Compound `CC1(C)CN2CCC(c3ccc(F)c(F)c3)N2C1=O` (centres unmarked) [Compound 9] had an IC50 of 1000 to 30000 nM.

As to `CCC1(C)CN2CCC(c3ccc(F)c(F)c3)N2C1=O` (centres unmarked) [Compound 10], the half-inhibitory concentration (IC50) was less than 1000 nM.

With `CC1(C)CC2(CN3CCC(c4cccc(F)c4)N3C2=O)C1` (centres unmarked) [Compound 12], the IC50 was less than 1000 nM.

`CC(F)(F)C1(C)CN2CCC(c3cccc(F)c3)N2C1=O` (centres unmarked) [Compound 13] yielded a 50% inhibitory concentration (IC50) of less than 1000 nM.

`C=CCC1(C)CN2CCC(c3cccc(F)c3)N2C1=O` (centres unmarked) [Compound 14] showed an IC50 of less than 1000 nM.

Take `CCCC1(C)CN2CCC(c3cccc(F)c3)N2C1=O` (centres unmarked) [Compound 15]: the concentration for half-maximal inhibition (IC50) was in the range of 1000 to 30000 nM.

`CCCC1(C)CN2CCC(c3cccc(F)c3)N2C1=O` (centres unmarked) [Compound 16] returned a 50% inhibitory concentration (IC50) of less than 1000 nM.

In the case of `CC1(CC2CC2)CN2CCC(c3cccc(F)c3)N2C1=O` (centres unmarked) [Compound 17], the IC50 is less than 1000 nM.

`CCC1(C(F)F)CN2CCC(c3cncc(Br)c3)N2C1=O` (centres unmarked) [Compound 18] displayed an IC50 of less than 1000 nM.

Regarding `CCC1(C(F)F)CN2CCC(c3cncc(C#N)c3)N2C1=O` (centres unmarked) [Compound 19], the half-inhibitory concentration (IC50) is less than 1000 nM.

`CCC1(C(F)F)CN2CCC(c3cccc(F)c3)N2C1=O` (centres unmarked) [Compound 20] showed an IC50 of less than 1000 nM.

`CCC1(C)CN2CCC(c3cc(F)cc(F)c3)N2C1=O` (centres unmarked) [Compound 21] returned an IC50 of less than 1000 nM.

In the case of `CCC1(C)CN2CCC(c3cc(F)cc(C#N)c3)N2C1=O` (centres unmarked) [Compound 23], the IC50 is less than 1000 nM.

The compound `CCC1(C)CN2CCC(c3cncc(F)c3)N2C1=O` (centres unmarked) [Compound 25] had a half-maximal inhibitory concentration (IC50) of less than 1000 nM.

The compound `CCC1(C)CN2CCC(c3cncc(F)c3)N2C1=O` (centres unmarked) [Compound 26] showed an IC50 of 1000 to 30000 nM.

As to `CC1(CC(F)F)CN2CCC(c3cccc(F)c3)N2C1=O` (centres unmarked) [Compound 27], the IC50 was less than 1000 nM.

The compound `CC1(CC#N)CN2CCC(c3cccc(F)c3)N2C1=O` (centres unmarked) [Compound 28] gave an IC50 of less than 1000 nM.

`CCC1(CCl)CN2CCC(c3cccc(F)c3)N2C1=O` (centres unmarked) [Compound 29] had an IC50 of less than 1000 nM.

For the compound `CCC1(CF)CN2CCC(c3cccc(F)c3)N2C1=O` (centres unmarked) [Compound 30], the concentration for half-maximal inhibition (IC50) was less than 1000 nM.

`CCC1(C(F)F)CN2CCC(c3cc(F)cc(C#N)c3)N2C1=O` (centres unmarked) [Compound 31] gave an IC50 of less than 1000 nM.

As for `CCC1(C(F)F)CN2CCC(c3cncc(F)c3)N2C1=O` (centres unmarked) [Compound 33], the half-maximal inhibitory concentration (IC50) was less than 1000 nM.

Turning to `CCC1(C(F)F)CN2CCC(c3cncc(F)c3)N2C1=O` (centres unmarked) [Compound 34], the half-inhibitory concentration (IC50) lay in the range of 1000 to 30000 nM.

Turning to `CC1(CC2CC2)CN2CCC(c3cc(F)cc(C#N)c3)N2C1=O` (centres unmarked) [Compound 35], the concentration for half-maximal inhibition (IC50) was less than 1000 nM.

For the compound `CC(F)(F)C1(C)CN2CCC(c3cncc(C#N)c3)N2C1=O` (centres unmarked) [Compound 37], the 50% inhibitory concentration (IC50) was less than 1000 nM.

`CC1(C(F)F)CN2CCC(c3cc(F)cc(C#N)c3)N2C1=O` (centres unmarked) [Compound 40]: the 50% inhibitory concentration (IC50) is less than 1000 nM.

`CC1(C(F)F)CN2CCC(c3cc(F)cc(C#N)c3)N2C1=O` (centres unmarked) [Compound 41] returned an IC50 of 1000 to 30000 nM.

Regarding `CC(F)(F)C1(C)CN2CCC(c3cc(F)cc(C#N)c3)N2C1=O` (centres unmarked) [Compound 42], the IC50 is less than 1000 nM.

`CC(F)(F)C1(C)CN2CCC(c3cc(F)cc(C#N)c3)N2C1=O` (centres unmarked) [Compound 43] displayed an IC50 of 1000 to 30000 nM.

In turn, `CC(F)(F)C1(C)CN2CCC(c3cncc(F)c3)N2C1=O` (centres unmarked) [Compound 46] displayed an IC50 of 1000 to 30000 nM.

In turn, `CC(F)(F)C1(C)CN2CCC(c3cncc(F)c3)N2C1=O` (centres unmarked) [Compound 47] came in with an IC50 of less than 1000 nM.

Take `O=C1N2C(c3cncc(F)c3)CCN2CC1(CC(F)(F)F)C(F)F` (centres unmarked) [Compound 48]: the half-maximal inhibitory concentration (IC50) was in the range of 1000 to 30000 nM.

`CC1(CC(F)(F)F)CN2CCC(c3cncc(F)c3)N2C1=O` (centres unmarked) [Compound 50]: the IC50 is less than 1000 nM.

`CC1(CC(F)(F)F)CN2CCC(c3cncc(F)c3)N2C1=O` (centres unmarked) [Compound 51] had a 50% inhibitory concentration (IC50) of 1000 to 30000 nM.

Regarding `O=C1N2C(c3cncc(F)c3)CCN2CC1(CC1CC1)C(F)F` (centres unmarked) [Compound 52], the IC50 is less than 1000 nM.

The compound `O=C1N2C(c3cncc(F)c3)CCN2CC1(CC1CC1)C(F)F` (centres unmarked) [Compound 53] had a half-maximal inhibitory concentration (IC50) of 1000 to 30000 nM.

The compound `CCCC1(C(F)F)CN2CCC(c3cncc(C#N)c3)N2C1=O` (centres unmarked) [Compound 54] had an IC50 of less than 1000 nM.
